Toxic doses and inconclusive results are not listed. Rule for the calls: active = survival T/C of 150% or more; inactive = T/C below 125% in these data.
System: CD2F1 mice, L1210 leukemia ip, survival T/C
Experiment: NCI In Vivo Anticancer Drug Screen. Data for tumor model L1210 Leukemia (intraperitoneal) in CD2F1 (CDF1) mice
Details: endpoint: mean survival time, higher = longer survival
Procedure, shortened: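 Activity against a transplanted murine tumor was judged by comparing the compound group with a vehicle group. The outcome in the treated animals was divided by that in the controls.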

[1] = dose: 6.25 mg/kg/injection, schedule: Q01DX009 (ip), vehicle: saline with Tween-80
[2] = dose: 100.0 mg/kg/injection, schedule: Q04DX003 (ip), vehicle: saline
[3] = dose: 200.0 mg/kg/injection, schedule: Q04DX003 (ip), vehicle: saline
[4] = dose: 100.0 mg/kg/injection, schedule: Q01DX009 (ip), vehicle: Klucel (hydroxypropylcellulose) (HPC)

Measured: T/C

CCCCCCCCCCCCNC(=O)C[n+]1cccc(C(=O)N(C)C)c1
inactive: dose: 5.0 mg/kg/injection, schedule: Q01DX009 (ip), vehicle: saline with Tween-80 114 % of control | dose: 10.0 mg/kg/injection, schedule: Q01DX009 (ip), vehicle: saline with Tween-80 97 % of control | dose: 20.0 mg/kg/injection, schedule: Q01DX009 (ip), vehicle: saline with Tween-80 98 % of control

CCCCCCCCCCNC(=O)C[n+]1cccc(C(=O)N(CC)CC)c1
inactive: [1] 91 % of control | dose: 12.5 mg/kg/injection, schedule: Q01DX009 (ip), vehicle: saline with Tween-80 97 % of control | dose: 25.0 mg/kg/injection, schedule: Q01DX009 (ip), vehicle: saline with Tween-80 91 % of control

O=c1c(Cl)c2cc3c(cc2c2ccccc12)nc1ccccc1n3Cc1ccc([N+](=O)[O-])cc1
inactive: [2] 95 % of control | [3] 106 % of control | dose: 400.0 mg/kg/injection, schedule: Q04DX003 (ip), vehicle: saline 91 % of control

OCc1ccc(Cl)cc1
inactive: dose: 100.0 mg/kg/injection, schedule: Q04DX003 (ip), vehicle: saline with Tween-80 96 % of control | dose: 200.0 mg/kg/injection, schedule: Q04DX003 (ip), vehicle: saline with Tween-80 97 % of control | dose: 400.0 mg/kg/injection, schedule: Q04DX003 (ip), vehicle: saline with Tween-80 100 % of control

Cc1c[nH]c(=S)[nH]c1=O.[Pd]
inactive: dose: 3.12 mg/kg/injection, schedule: Q04DX003 (ip), vehicle: saline 94 % of control | dose: 6.25 mg/kg/injection, schedule: Q04DX003 (ip), vehicle: saline 102 % of control | dose: 12.5 mg/kg/injection, schedule: Q04DX003 (ip), vehicle: saline 97 % of control | dose: 25.0 mg/kg/injection, schedule: Q04DX003 (ip), vehicle: saline 102 % of control | dose: 50.0 mg/kg/injection, schedule: Q04DX003 (ip), vehicle: saline 100 % of control | [2] 100 % of control | [3] 96 % of control

O=C(CBr)c1cc(-c2ccc(Cl)cc2)nc2c(Cl)cc(Cl)cc12
inactive: dose: 100.0 mg/kg/injection, schedule: Q01DX001 (ip), vehicle: saline 91 % of control | dose: 200.0 mg/kg/injection, schedule: Q01DX001 (ip), vehicle: saline 97 % of control | dose: 400.0 mg/kg/injection, schedule: Q01DX001 (ip), vehicle: saline 103 % of control

CCC(=O)NCCc1ccccc1
inactive: dose: 100.0 mg/kg/injection, schedule: Q01DX009 (ip), vehicle: saline with Tween-80 100 % of control | dose: 200.0 mg/kg/injection, schedule: Q01DX001 (ip), vehicle: saline with Tween-80 97 % of control | dose: 200.0 mg/kg/injection, schedule: Q01DX009 (ip), vehicle: saline with Tween-80 100 % of control | dose: 400.0 mg/kg/injection, schedule: Q01DX001 (ip), vehicle: saline with Tween-80 97 % of control

Cc1nc(C)c(C#N)c(=O)[nH]1
inactive: dose: 100.0 mg/kg/injection, schedule: Q04DX002 (ip), vehicle: saline with Tween-80 97 % of control | dose: 200.0 mg/kg/injection, schedule: Q04DX002 (ip), vehicle: saline with Tween-80 97 % of control | dose: 400.0 mg/kg/injection, schedule: Q04DX002 (ip), vehicle: saline with Tween-80 97 % of control

C1=Nc2c(ccc3ccccc23)CS1
inactive: dose: 25.0 mg/kg/injection, schedule: Q04DX002 (ip), vehicle: other 91 % of control | dose: 50.0 mg/kg/injection, schedule: Q04DX002 (ip), vehicle: other 95 % of control | dose: 100.0 mg/kg/injection, schedule: Q04DX002 (ip), vehicle: other 100 % of control

COC(=O)c1cccc2c(Br)cc3ccccc3c12
inactive: [4] 98 % of control | dose: 100.0 mg/kg/injection, schedule: Q04DX003 (ip), vehicle: Klucel (hydroxypropylcellulose) (HPC) 102 % of control | dose: 200.0 mg/kg/injection, schedule: Q01DX009 (ip), vehicle: Klucel (hydroxypropylcellulose) (HPC) 103 % of control | dose: 200.0 mg/kg/injection, schedule: Q04DX003 (ip), vehicle: Klucel (hydroxypropylcellulose) (HPC) 98 % of control | dose: 400.0 mg/kg/injection, schedule: Q01DX009 (ip), vehicle: Klucel (hydroxypropylcellulose) (HPC) 110 % of control | dose: 400.0 mg/kg/injection, schedule: Q04DX003 (ip), vehicle: Klucel (hydroxypropylcellulose) (HPC) 108 % of control

O=C1C=CC(=O)c2c(O)cccc21
inactive: dose: 3.13 mg/kg/injection, schedule: Q01DX009 (ip), vehicle: saline with Tween-80 94 % of control | [1] 92 % of control | dose: 12.5 mg/kg/injection, schedule: Q04DX003 (ip), vehicle: saline with Tween-80 88 % of control

c1cc(OCC2CO2)ccc1OCC1CO1 (stereo unspecified)
inactive: dose: 25.0 mg/kg/injection, schedule: Q01DX009 (ip), vehicle: Klucel (hydroxypropylcellulose) (HPC) 110 % of control | dose: 50.0 mg/kg/injection, schedule: Q01DX009 (ip), vehicle: Klucel (hydroxypropylcellulose) (HPC) 107 % of control | [4] 113 % of control

N=C(N)c1cc(Cl)c(OCc2ccccc2)c(Cl)c1
inactive: dose: 25.0 mg/kg/injection, schedule: Q04DX003 (ip), vehicle: saline with Tween-80 97 % of control | dose: 50.0 mg/kg/injection, schedule: Q04DX003 (ip), vehicle: saline with Tween-80 96 % of control
